Drawing on PubChem BioAssay (NCI), this text covers TGI and GI50 for 16 molecules.

The structures appear in SMILES notation. Several values for one entry are separate records, joined by “and”; a condition that tells them apart may be missing. Equal values may be shown once.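 Cells were grown in 96-well plates and exposed to each compound for 48 hours at five concentrations; endpoints were interpolated linearly between bracketing concentrations, or set to the highest concentration if not reached. At the GI50, growth is halved. TGI is the concentration that stops growth completely.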 Bounds are passed on as bounds.

Among the test systems are DMS 114 small cell lung; DLD-1 colon; OVCAR-4 ovarian; DMS 273 small cell lung; M19-MEL melanoma; XF 498 CNS; HOP-18 NSCLC; SNB-78 CNS; HS 578T breast; MDA-MB-435.
What all share (assay): NCI-60 cell line screen, 48 h

As for `O=S(=O)(C1=CC(S(=O)(=O)c2ccccc2)COC1)c1ccccc1` (stereo not given), the TGI in the experiment on DMS 114 small cell lung, with DLD-1 colon, in the experiment with OVCAR-4 ovarian, in the experiment on DMS 273 small cell lung, with M19-MEL melanoma and in the experiment on XF 498 CNS was above 100 µM each time.

Regarding `CCCCCCCCSC(=O)NCCCC`, the TGI in the experiment on HOP-18 NSCLC was above 100 µM; with DLD-1 colon it was above 100 µM; in the experiment on OVCAR-4 ovarian it was above 100 µM; in the experiment on DMS 273 small cell lung it was above 100 µM; in the experiment with M19-MEL melanoma, above 100 µM; in the experiment with XF 498 CNS, 47.2 µM.

Turning to `C/C(=C1/N=C(c2cc([N+](=O)[O-])ccc2Cl)N(c2ccc(Br)cc2)C1=O)c1ccc(N(CCC#N)CCC#N)cc1C`, the TGI with SNB-78 CNS was above 100 µM; with HOP-18 NSCLC it was above 100 µM; in the experiment on DMS 114 small cell lung, 27.2 µM; in the experiment with DLD-1 colon, 32.2 µM; with OVCAR-4 ovarian it was above 100 µM; in the experiment on DMS 273 small cell lung, 43.8 µM. The results for the TGI in the experiment on M19-MEL melanoma and in the experiment with XF 498 CNS were 92.3 µM and above 100 µM, respectively.

As to `Cc1ccccc1/C=C/c1csnn1`, the TGI is above 100 µM with SNB-78 CNS; above 100 µM in the experiment on HOP-18 NSCLC; above 56 µM with DMS 114 small cell lung; above 74.3 µM in the experiment with DLD-1 colon; above 100 µM with OVCAR-4 ovarian; above 100 µM with DMS 273 small cell lung. The TGI in the experiment with M19-MEL melanoma and in the experiment on XF 498 CNS was above 100 µM each time.

`Cc1noc2cccc(O)c12`: the TGI with SNB-78 CNS, with HOP-18 NSCLC, with DMS 114 small cell lung, in the experiment with DLD-1 colon, in the experiment on OVCAR-4 ovarian and in the experiment on DMS 273 small cell lung was above 100 µM throughout. The TGI in the experiment on M19-MEL melanoma and with XF 498 CNS was above 100 µM each time.

With `COC(=O)C(=O)C(CC(=O)Nc1cc(Cl)ccc1Cl)C(=O)OC` (stereo not given), the TGI with SNB-78 CNS, with HOP-18 NSCLC, in the experiment with DMS 114 small cell lung, in the experiment with OVCAR-4 ovarian and with DMS 273 small cell lung was above 100 µM each time.

Consider `CC[C@@]1(O)C(=O)OCc2c1cc1n(c2=O)Cc2cc3cc(Cl)ccc3nc2-1`, for which the GI50 with SNB-78 CNS was 0.0711 µM and 0.0581 µM; with HS 578T breast, 0.445 µM; in the experiment on DMS 114 small cell lung, below 0.001 µM; with DLD-1 colon it was 0.108 µM and 0.346 µM; with OVCAR-4 ovarian, 0.125 µM and 0.249 µM; with DMS 273 small cell lung, below 0.001 µM. Moreover, the GI50 with MDA-MB-435 is 0.089 µM; in the experiment on M19-MEL melanoma, 0.0167 µM and 0.0195 µM. The TGI with DLD-1 colon is above 100 µM; with DMS 273 small cell lung, 0.0211 µM and 0.14 µM; with MDA-MB-435, 0.357 µM; in the experiment with M19-MEL melanoma it was 0.224 µM and 0.19 µM.

`CC12Nc3ccccc3C1=C(c1ccccc1)CC1C(=O)OC(=O)C12` (stereo not given): the TGI in the experiment with SNB-78 CNS, with DMS 114 small cell lung, in the experiment on DLD-1 colon, in the experiment on OVCAR-4 ovarian, with DMS 273 small cell lung and in the experiment on M19-MEL melanoma was above 100 µM throughout. This molecule also returned a TGI in the experiment with XF 498 CNS above 100 µM.

On to `Nc1cn(C2OC(CC(c3ccccc3)(c3ccccc3)c3ccccc3)C(O)C2O)c(=O)[nH]c1=O` (stereo not given), for which the TGI with SNB-78 CNS is above 100 µM; in the experiment on HOP-18 NSCLC, 67.7 µM; in the experiment with DMS 114 small cell lung it was 35.4 µM; with DLD-1 colon it was 54.6 µM; in the experiment with DMS 273 small cell lung it was above 100 µM; with M19-MEL melanoma, 34.9 µM. The molecule further yielded a TGI with XF 498 CNS of 46.5 µM.

Take `NC(CCSCC(F)(F)F)C(=O)O` (stereo not given): the TGI in the experiment on SNB-78 CNS, in the experiment with HOP-18 NSCLC, in the experiment on DMS 114 small cell lung, with DLD-1 colon, in the experiment on OVCAR-4 ovarian and in the experiment with DMS 273 small cell lung was above 100 µM throughout. This molecule also came in with a TGI in the experiment on M19-MEL melanoma above 100 µM.

With `COc1cccc(/C=N/[N-]C(=O)c2ccncc2)c1[O-].[Mn+2].[OH3+]`, the GI50 in the experiment with SNB-78 CNS is above 100 µM; in the experiment on HOP-18 NSCLC, 14.7 µM; with DMS 114 small cell lung, 14.6 µM; in the experiment with DLD-1 colon, 5.23 µM; in the experiment on OVCAR-4 ovarian, 22.1 µM; in the experiment on DMS 273 small cell lung, 6.73 µM. Besides, the GI50 was 7.54 µM with M19-MEL melanoma and 12.3 µM with XF 498 CNS. The TGI with SNB-78 CNS is above 100 µM; in the experiment with HOP-18 NSCLC it was above 100 µM; in the experiment on DMS 114 small cell lung it was 58.7 µM; in the experiment on DLD-1 colon it was above 100 µM; in the experiment on OVCAR-4 ovarian, above 100 µM; in the experiment with DMS 273 small cell lung it was 73.5 µM. The TGI in the experiment with M19-MEL melanoma was 46.4 µM; in the experiment on XF 498 CNS, 86.9 µM.

As for `C[N+]1=C(c2cccnc2/C=N/O)OCC1(C)C`, the TGI in the experiment on SNB-78 CNS, in the experiment on HOP-18 NSCLC, with DMS 114 small cell lung, in the experiment on DLD-1 colon, in the experiment with OVCAR-4 ovarian and in the experiment on DMS 273 small cell lung was above 100 µM throughout. The TGI in the experiment on M19-MEL melanoma and in the experiment on XF 498 CNS was above 100 µM each time.

Turning to `CC(=O)Nc1ccccc1-c1nc2ccccc2nc1-c1ccccc1`, the TGI in the experiment with SNB-78 CNS, in the experiment with HOP-18 NSCLC, with DMS 114 small cell lung, with DLD-1 colon, in the experiment on OVCAR-4 ovarian and in the experiment on DMS 273 small cell lung was above 100 µM in each case. Also, the TGI in the experiment on M19-MEL melanoma and in the experiment on XF 498 CNS was above 100 µM throughout.

As to `Cc1cccc(C(C)(C)C)c1NC(=O)C(C#N)C1=C(Cl)C(=O)c2ccccc2C1=O` (stereo not given), the TGI in the experiment on SNB-78 CNS came out at 33.1 µM; in the experiment on HOP-18 NSCLC it was 24.3 µM; in the experiment with HS 578T breast, 52.5 µM; with DMS 114 small cell lung, 38.3 µM; in the experiment on DLD-1 colon, 33.4 µM; with OVCAR-4 ovarian, 28.9 µM. Besides, the TGI in the experiment with DMS 273 small cell lung was 36.2 µM; in the experiment with MDA-MB-435, 30.6 µM; in the experiment on XF 498 CNS it was 29.4 µM.

As to `O=C(Nc1cccc(C(F)(F)F)c1)C(=O)C(C(=O)c1ccc(Cl)c(Cl)c1)C1OC(=O)c2ccccc21` (stereo not given), the TGI was above 100 µM in the experiment with SNB-78 CNS; above 100 µM in the experiment on HOP-18 NSCLC; 78.6 µM with DMS 114 small cell lung; above 100 µM in the experiment on DLD-1 colon; above 100 µM in the experiment with OVCAR-4 ovarian; above 100 µM in the experiment with DMS 273 small cell lung. Also, the TGI with M19-MEL melanoma is 54 µM; in the experiment with XF 498 CNS, above 100 µM.

Consider `c1ccc2c(c1)[nH]c1cnc3c4ncccc4[nH]c3c12`, for which the TGI with SNB-78 CNS, with DMS 114 small cell lung, with DLD-1 colon, in the experiment with OVCAR-4 ovarian, in the experiment with DMS 273 small cell lung and in the experiment with M19-MEL melanoma was above 100 µM in each case. Moreover, the TGI with XF 498 CNS was above 100 µM.
